Data as given in patent US10822337B2, “TGF-β inhibitorC” (Rigel Pharmaceuticals, Inc., priority 2015, dated 2020).
pIC50: −log10 of the molar value.

How the values were obtained:
[1] = test system: TGF-β signaling (TGF-β pSMAD, MPC-11); test: AlphaScreen SureFire SMAD3 (p-Ser423/425) assay, inhibition of TGF-β signaling; format: cell-based; conditions: Mus musculus, p-SMAD-3 (Ser423/425) in cell lysate after TGF-β stimulation
From the text: (§1) Example 2: AlphaScreen® SureFire® SMAD3 (p-Ser423/425) Assay
(§2) The p-SMAD-3 (Ser423/425) SureFire® assay has been designed to measure the phosphorylation of endogenous cellular p-SMAD-3 (Ser423/425) in cell lysates and is a system for the screening of both modulators of receptor activation (e.g. agonists and antagonists) as well as agents acting intracellularly, such as small molecule inhibitors of upstream events. The assay will measure p-SMAD-3 (Ser423/425) activation by either cloned or endogenous receptors, and can be applied to primary cells.
(§3) 1× Lysis buffer: 1 ml of 5× Lysis buffer was diluted with 4 ml of sterile water. After dilution, excess 1× Lysis buffer can be frozen and thawed up to 5 times without loss in activity.
(§4) P-SMAD-3 (Ser423/425) SureFire® Assay Protocols
(§5) Step A: Preparation of Buffers
(§6) Activation buffer: The buffer was warmed slowly to 37° C. and gently mixed to re-suspend. Activation buffer can be stored at room temperature with no loss in activity.
(§7) Reaction buffer: The buffer was kept at 4° C. while in use.
(§8) AlphaScreen® Protein A IgG Kit: The kit was stored at 4° C. in the dark.
(§9) Reaction buffer+Activation buffer+AlphaScreen® Acceptor beads: Reaction buffer (40 parts), Activation Buffer (10 parts) and Acceptor beads (1 part) were mixed and the mixture was stored at room temperature and used the same day. Mixture was added to 384-well plates; excess mixturewas discarded.
(§10) Dilution buffer+AlphaScreen® Donor beads: Dilution buffer (20 parts) and Donor beads (1 part) were mixed and the mixture was stored at room temperature and used the same day. Excess mixture was discarded.
(§11) Assay control samples: After reconstitution in 250 μl of water, lysates were at −20° C. in single use aliquots.
(§12) Step B: Preparation of Samples and Cells
(§13) 96-well Assay Protocol for 293FT and RMS13 adherent cells can be carried out manually or in high throughput with liquid handling robots.
(§14) The cells (80 μL of cells for 96 well plates) were plated in collagen coated tissue culture plates in RPMI or FreeStyle medium (Invitrogen) and incubated overnight. For manual analysis, 6 plates for GDF8, 6 plates for TGFβ, and optionally 6 plates for Alk5ca(ALKS constitutively active) were used.
(§15) The compound dilution plates were prepared as follows: 12 μL of DMSO was transferred into first column of 96-well plate, and 16 μL of DMSO was transferred into columns 2-12 of the 96-well plate. 12 μL of compound solution was transferred into first column of the DMSO-containing 96-well plate. Three-fold dilution was performed up to column 10 of the DMSO-containing 96-well plate.
(§16) Step C: Treatment and Analysis
(§17) The plate containing cells were treated with compounds for about 10 minutes, and then ligand was added. GDF8 or TGFb was added to plates to stimulate. 293FL cells were stimulatedfor 90 minutes at 37° C.; and RMS13 cells were stimulated for 60 minutes at 37° C. The medium was then removed from the cells, and 1× Lysis Buffer (about 25 μL) was added and the plate was gently agitated on plate shaker for 5-10 minutes.
(§18) The lysate (5 μL) was then placed into 384-well shallow plates avoiding the generation of bubbles. To this, the Reaction Buffer+Activation Buffer+AlphaScreen® Acceptor beadsmixture (5 μL) was added. The plate was sealed with adhesive cover and shielded from light (e.g., with metal foil), and agitated gently on plate shaker for 2 hours at room temperature.
(§19) Dilution buffer+AlphaScreen® Donor beads (2 μL) was then added, and the plate was intubated on the plate shaker for an additional 1½ hours. After completion, the plate was read on Synergy-4 or Enspire plate reader, using AlphaScreen® pSMAD3® settings.
(§20) Representative results for inhibition of GDF8 (data=GDF pSMAD (MPC11) (μM)) and TGF-β (data=TGF-β pSMAD (MPC-11) (μM)) signaling are shown in Table 1: […]

[2] = test system: GDF8 signaling (GDF pSMAD, MPC11); test: AlphaScreen SureFire SMAD3 (p-Ser423/425) assay, inhibition of GDF8 signaling; format: cell-based; conditions: Mus musculus, MPC-11, p-SMAD-3 (Ser423/425) in cell lysate after GDF8 stimulation
From the text: as §1, §2, §3, §4, §5, §6, §7, §8, §9, §10, §11, §12, §13, §14, §15, §16, §17, §18, §19, §20

SMILES | pIC50 [1] | pIC50 [2]
Cc1cccc(-c2nn3c(c2-c2ccc4ncccc4c2)CCC3)c1 [Compound 46, 6-(2-(m-Tolyl)-5,6-dihydro-4H-pyrrolo[1,2-b]pyrazol-3-yl)quinoline] | 5.82 | 6.63
Cc1cc(-c2nn3c(c2-c2ccc4ncccc4c2)CCC3)ccc1F [Compound 47, 6-(2-(4-Fluoro-3-methylphenyl)-5,6-dihydro-4H-pyrrolo[1,2-b]pyrazol-3-yl)quinoline] | 5.60 | 6.48
COc1cccc(-c2nn3c(c2-c2ccc4ncccc4c2)CCC3)c1 [Compound 48, 6-(2-(3-Methoxyphenyl)-5,6-dihydro-4H-pyrrolo[1,2-b]pyrazol-3-yl)quinoline] | 5.35 | 6.21
Clc1cccc(-c2nn3c(c2-c2ccc4ncccc4c2)CCC3)c1 [Compound 49, 6-(2-(3-Chlorophenyl)-5,6-dihydro-4H-pyrrolo[1,2-b]pyrazol-3-yl)quinoline] | 6.03 | 6.89
FC(F)(F)c1cccc(-c2nn3c(c2-c2ccc4ncccc4c2)CCC3)c1 [Compound 50, 6-(2-(3-Trifluoromethylphenyl)-5,6-dihydro-4H-pyrrolo[1,2-b]pyrazol-3-yl)quinoline] | 5.38 | 6.32
Cc1cccc(-c2nn3c(c2-c2ccc4ncccc4c2)OCC3)c1 [Compound 51, 7-(Quinolin-6-yl)-6-(m-tolyl)-2,3-dihydropyrazolo[5,1-b]oxazole] | 5.53 | 6.43
Cc1cccc(-c2nn3c(c2-c2ccc4nccnc4c2)OCC3)c1 [Compound 52, 7-(Quinoxalin-6-yl)-6-(m-tolyl)-2,3-dihydropyrazolo[5,1-b]oxazole] | 6.69 | 7.32
Fc1ccc(-c2nn3c(c2-c2ccc4nccnc4c2)CCC3)cc1 [Compound 53, 6-(2-(4-Fluorophenyl)-5,6-dihydro-4H-pyrrolo[1,2-b]pyrazol-3-yl)quinoxaline] | 5.63 | 6.40
Cc1cccc(-c2nn3c(c2-c2ccc4nccnc4c2)CCC3)c1 [Compound 54, 6-(2-(m-Tolyl)-5,6-dihydro-4H-pyrrolo[1,2-b]pyrazol-3-yl)quinoxaline] | 6.69 | 7.22
Cc1cc(-c2nn3c(c2-c2ccc4nccnc4c2)CCC3)ccc1F [Compound 55, 6-(2-(4-Fluoro-3-methylphenyl)-5,6-dihydro-4H-pyrrolo[1,2-b]pyrazol-3-yl)quinoxaline] | 6.28 | 6.76
COc1cccc(-c2nn3c(c2-c2ccc4nccnc4c2)CCC3)c1 [Compound 56, 6-(2-(3-Methoxyphenyl)-5,6-dihydro-4H-pyrrolo[1,2-b]pyrazol-3-yl)quinoxaline] | 6.06 | 6.43
Clc1cccc(-c2nn3c(c2-c2ccc4nccnc4c2)CCC3)c1 [Compound 57, 6-(2-(3-Chlorophenyl)-5,6-dihydro-4H-pyrrolo[1,2-b]pyrazol-3-yl)quinoxaline] | 6.40 | 7.14
FC(F)(F)c1cccc(-c2nn3c(c2-c2ccc4nccnc4c2)CCC3)c1 [Compound 58, 6-(2-(3-Trifluoromethylphenyl)-5,6-dihydro-4H-pyrrolo[1,2-b]pyrazol-3-yl)quinoxaline] | 6.06 | 6.51
FC(F)(F)c1cccc(-c2nn3c(c2-c2ccc4[nH]ncc4c2)OCC3)c1 [Compound 59, 7-(1H-Indazol-5-yl)-6-(3-trifluoromethylphenyl)-2,3-dihydropyrazolo[5,1-b]oxazole] | 6.15 | 6.66
Cn1cnc2ccc(-c3c(-c4cccc(C(F)(F)F)c4)nn4c3OCC4)cc21 [Compound 60, 7-(1-Methyl-1H-benzo[d]imidazol-6-yl)-6-(3-trifluoromethylphenyl)-1,2-dihydropyrazolo[5,1-b]oxazole] | 6.67 | 7.16
FC(F)(F)c1cccc(-c2nn3c(c2-c2ccc4nccn4c2)OCC3)c1 [Compound 61, 7-(Imidazo[1,2-a]pyridin-6-yl)-6-(3-trifluoromethylphenyl)-2,3-dihydropyrazolo[5,1-b]oxazole] | 6.34 | 6.89
FC(F)(F)c1cccc(-c2nn3c(c2-c2ccc4ncsc4c2)OCC3)c1 [Compound 62, 7-(Benzo[d]thiazol-6-yl)-6-(3-trifluoromethylphenyl)-2,3-dihydropyrazolo[5,1-b]oxazole] | 6.10 | 6.57
FC(F)(F)c1cccc(-c2nn3c(c2-c2ccc4ncccc4c2)OCC3)c1 [Compound 63, 7-(Quinolin-6-yl)-6-(3-trifluoromethylphenyl)-2,3-dihydropyrazolo[5,1-b]oxazole] | 5.22 | 5.70
FC(F)(F)c1cccc(-c2nn3c(c2-c2ccc4nccnc4c2)OCC3)c1 [Compound 64, 7-(Quinoxalin-6-yl)-6-(3-trifluoromethylphenyl)-2,3-dihydropyrazolo[5,1-b]oxazole] | 5.83 | 6.47
Fc1ccc(-c2nn3c(c2-c2ccc4cn[nH]c4c2)OCC3)cc1 [Compound 65, 6-(4-Fluorophenyl)-7-(1H-indazol-6-yl)-2,3-dihydropyrazolo[5,1-b]oxazole] | 6.05 | 6.85
Fc1ccc(-c2nn3c(c2-c2ccc4nccn4c2)OCC3)cc1 [Compound 67, 6-(4-Fluorophenyl)-7-(imidazo[1,2-a]pyridin-6-yl)-2,3-dihydropyrazolo[5,1-b]oxazole] | 5.58 | 6.48
Fc1ccc(-c2nn3c(c2-c2ccc4ncsc4c2)OCC3)cc1 [Compound 68, 7-(Benzo[d]thiazol-6-yl)-6-(4-fluorophenyl)-2,3-dihydropyrazolo[5,1-b]oxazole] | 5.96 | 6.48
Fc1ccc(-c2nn3c(c2-c2ccc4ncccc4c2)OCC3)cc1 [Compound 69, 6-(4-Fluorophenyl)-7-(quinolin-6-yl)-2,3-dihydropyrazolo[5,1-b]oxazole] | 5.11 | 5.90
Fc1ccc(-c2nn3c(c2-c2ccc4nccnc4c2)OCC3)cc1 [Compound 70, 6-(4-Fluorophenyl)-7-(quinoxalin-6-yl)-2,3-dihydropyrazolo[5,1-b]oxazole] | 5.86 | 6.40
FC(F)(F)c1cccc(-c2nn3c(c2-c2ccc4cn[nH]c4c2)OCC3)c1 [Compound 71, 7-(1H-Indazol-6-yl)-6-(3-trifluoromethylphenyl)-2,3-dihydropyrazolo[5,1-b]oxazole] | 6.07 | 6.75
COc1cccc(-c2nn3c(c2-c2ccc4ncn(C)c4c2)OCC3)c1 [Compound 72, 6-(3-Methoxyphenyl)-7-(1-methyl-1H-benzo[d]imidazol-6-yl)-2,3-dihydropyrazolo[5,1-b]oxazole] | 6.18 | 6.63
COc1cccc(-c2nn3c(c2-c2ccc4nccn4c2)OCC3)c1 [Compound 73, 7-(Imidazo[1,2-a]pyridin-6-yl)-6-(3-methoxyphenyl)-2,3-dihydropyrazolo[5,1-b]oxazole] | 5.83 | 6.48
COc1cccc(-c2nn3c(c2-c2ccc4ncsc4c2)OCC3)c1 [Compound 74, 7-(Benzo[d]thiazol-6-yl)-6-(3-methoxyphenyl)-2,3-dihydropyrazolo[5,1-b]oxazole] | 5.98 | 6.62
COc1cccc(-c2nn3c(c2-c2ccc4ncccc4c2)OCC3)c1 [Compound 75, 6-(3-Methoxyphenyl)-7-(quinolin-6-yl)-2,3-dihydropyrazolo[5,1-b]oxazole] | 5.14 | 5.91
